Test results: PMC4393779 (Journal of neurochemistry, 2015)
Like-named read-outs stand apart in the source and are kept apart here.

Assays:
DAT = conditions: intact cells; ref Chen et al., 2004b; cited from earlier work
[1] = tested on: WT + D345N hDAT (co-expressed); format: binding, human; conditions: transiently co-transfected 1:1, WT + D345N, observed
D313N hDAT = D313N hDAT (Homo sapiens, UniProt Q01959, D313N); assay: [3H]CFT saturation binding, HEK-293 cells transiently transfected with D313N DAT; conditions: transiently singly transfected
Sequence of D313N hDAT (Q01959 whole entry D313N): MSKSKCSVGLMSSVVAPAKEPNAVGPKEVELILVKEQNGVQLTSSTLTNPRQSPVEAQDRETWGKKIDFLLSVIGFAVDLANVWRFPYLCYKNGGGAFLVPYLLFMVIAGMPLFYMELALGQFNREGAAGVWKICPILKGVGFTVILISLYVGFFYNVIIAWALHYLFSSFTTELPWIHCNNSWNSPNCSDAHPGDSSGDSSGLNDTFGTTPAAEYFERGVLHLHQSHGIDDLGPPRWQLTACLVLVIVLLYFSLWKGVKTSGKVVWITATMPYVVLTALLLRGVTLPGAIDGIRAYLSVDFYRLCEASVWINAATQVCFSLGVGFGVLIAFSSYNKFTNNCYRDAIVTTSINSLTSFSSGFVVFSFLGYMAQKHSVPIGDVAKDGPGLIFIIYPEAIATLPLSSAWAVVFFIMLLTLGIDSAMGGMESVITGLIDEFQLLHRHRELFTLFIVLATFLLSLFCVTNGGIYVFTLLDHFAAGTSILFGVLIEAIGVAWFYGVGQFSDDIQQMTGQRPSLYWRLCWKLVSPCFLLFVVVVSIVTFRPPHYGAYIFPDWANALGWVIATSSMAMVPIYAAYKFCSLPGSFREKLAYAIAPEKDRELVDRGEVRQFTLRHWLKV

D345N hDAT [2] = target: T1, D345N hDAT (Homo sapiens, UniProt Q01959, D345N); assay: [3H]CFT saturation binding, intact HEK-293 cells stably expressing D345N DAT; conditions: observed, mean ± SE
T1 sequence (Q01959 whole entry D345N): as the sequence (Q01959 whole entry D313N) above, with N313D, D345N counted along it

[3] = tested on: W84L + D345N hDAT (mixed cells); format: binding, human; conditions: observed upon mixing stable cells in equal volumes
D436N hDAT [4] = target: T2, D436N hDAT (Homo sapiens, UniProt Q01959, D436N); assay: [3H]CFT saturation binding, intact HEK-293 cells stably expressing D436N DAT; conditions: observed, mean ± SE
T2 sequence (Q01959 whole entry D436N): as the sequence (Q01959 whole entry D313N) above, with N313D, D436N counted along it

[5] = tested on: WT + W84L hDAT (mixed cells); assay: [3H]CFT saturation binding, mixed cells singly stably expressing WT and W84L DAT; design: species or system human; conditions: observed upon mixing stable cells in equal volumes
D436N hDAT [6] = target: T2, D436N hDAT; assay: [3H]CFT saturation binding, HEK-293 cells transiently transfected with D436N DAT; conditions: transiently singly transfected
[7] = tested on: WT + D436N hDAT (co-expressed); format: binding, human; conditions: transiently co-transfected 1:1, WT + D436N, observed
[8] = tested on: WT + D436N hDAT (mixed cells); format: binding, human; conditions: observed upon mixing stable cells in equal volumes
W84L hDAT [9] = target: T3, W84L hDAT (Homo sapiens, UniProt Q01959, W84L); conditions: stably expressing cells, observed, mean ± SE
T3 sequence (Q01959 1-620 W84L): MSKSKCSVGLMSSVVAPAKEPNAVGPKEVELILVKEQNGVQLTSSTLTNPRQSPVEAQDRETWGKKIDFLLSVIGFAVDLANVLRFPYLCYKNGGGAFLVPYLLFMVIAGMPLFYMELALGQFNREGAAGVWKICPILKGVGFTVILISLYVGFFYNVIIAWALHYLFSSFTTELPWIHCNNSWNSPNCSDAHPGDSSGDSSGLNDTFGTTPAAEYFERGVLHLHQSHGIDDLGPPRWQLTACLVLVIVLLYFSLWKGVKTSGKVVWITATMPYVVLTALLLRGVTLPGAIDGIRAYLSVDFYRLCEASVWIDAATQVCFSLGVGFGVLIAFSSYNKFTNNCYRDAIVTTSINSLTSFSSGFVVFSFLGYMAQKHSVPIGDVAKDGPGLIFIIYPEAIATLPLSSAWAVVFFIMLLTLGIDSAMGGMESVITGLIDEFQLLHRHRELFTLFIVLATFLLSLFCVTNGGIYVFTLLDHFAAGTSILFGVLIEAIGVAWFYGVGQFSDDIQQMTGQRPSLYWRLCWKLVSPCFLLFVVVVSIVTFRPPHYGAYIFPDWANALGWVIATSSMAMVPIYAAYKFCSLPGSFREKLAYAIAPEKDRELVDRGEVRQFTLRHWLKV

[10] = tested on: W84L + D345N hDAT (co-expressed); format: binding, human; conditions: transiently co-transfected 1:1, W84L + D345N, observed
D345N hDAT [11] = target: T1, D345N hDAT; assay: [3H]CFT saturation binding, HEK-293 cells transiently transfected with D345N DAT; conditions: transiently singly transfected
WT hDAT [12] = target: T4, WT hDAT (Homo sapiens, UniProt Q01959); conditions: transiently singly transfected, observed, mean ± SE
T4 sequence (Q01959 whole entry): as the sequence (Q01959 whole entry D313N) above, with N313D counted along it

[13] = tested on: WT + D313N hDAT (co-expressed); format: binding, human; conditions: transiently co-transfected 1:1, WT + D313N, observed
[14] = tested on: WT + W84L hDAT (co-expressed); format: binding, human; conditions: transiently co-transfected 1:1, WT + W84L, observed
W84L hDAT [15] = target: T3, W84L hDAT; assay: [3H]CFT saturation binding, HEK-293 cells transiently transfected with W84L DAT; conditions: transiently singly transfected
WT hDAT [16] = target: T4, WT hDAT; assay: [3H]CFT saturation binding, intact HEK-293 cells stably expressing WT DAT; conditions: observed, mean ± SE

| Compound | inhibition of intact cell [3H]CFT binding (DAT) | Kd [1] | Bmax (D313N hDAT) | Bmax (D345N hDAT [2]) | Kd [3] | Bmax (D436N hDAT [4]) | Kd [5] | Bmax (D436N hDAT [6]) | Kd [7] | Kd [8] | Bmax (W84L hDAT [9]) | Kd [10] | Bmax (D345N hDAT [11]; set paired with W84L (n=6)) | Bmax (D345N hDAT [11]; set paired with WT (n=4)) | Bmax (WT hDAT [12]) | Kd [13] | Kd [14] | Bmax (W84L hDAT [15]; set paired with D345N (n=7)) | Bmax (W84L hDAT [15]; set paired with WT (n=5)) | Bmax (WT hDAT [16]) |
| --- | --- | --- | --- | --- | --- | --- | --- | --- | --- | --- | --- | --- | --- | --- | --- | --- | --- | --- | --- | --- |
| C[n+]1ccc(-c2ccccc2)cc1 [MPP^+] | completely inhibited |  |  |  |  |  |  |  |  |  |  |  |  |  |  |  |  |  |  |  |
| COC(=O)[C@H]1[C@@H](c2ccc(F)cc2)C[C@@H]2CC[C@H]1N2C [[^3H]CFT, (−)-2-β-carbomethoxy-3-β-(4-fluorophenyl)tropane] |  | 48.2 ± 10.3 nM | 0.41± 0.03 (4) pmol/mg | 0.57 ± 0.13 (4) pmol/mg | 2.01 ± 0.67 nM | 0.50± 0.08 (4) pmol/mg | 5.33 ± 0.95 nM | 0.94 ± 0.04 (3) pmol/mg | 103 ± 5 nM | 25.9 ± 4 nM | 0.75 ± 0.16 (8) pmol/mg | 6.75 ± 3.22 nM | 0.51 ± 0.12 (6) pmol/mg | 0.62 ± 0.10 (4) pmol/mg | 0.79 ± 0.21 (4) pmol/mg | 6.42 ± 1.1 nM | 4.4 ± 0.77 nM | 0.94 ± 0.13 (7) pmol/mg | 0.82 ± 0.14 (5) pmol/mg | 0.55 ± 0.03 (6) pmol/mg |
